For 11 molecules, inhibition and IC50 results are on record in patent US20240391948A1, “NOVEL COMPOUND THAT INHIBITS TNF-ALPHA GENERATION AND INFLAMMASOME ACTIVITY AND PREPARATION METHOD THEREFOR” (SHAPERON INC., priority 2021, published 2024).

Type in all cases: cell-based
In test [1] the test system is J774A.1 (Mouse BALB/c monocyte macrophage cell line) cells. The test can be described thus: LPS-induced TNF-α secretion inhibition in J774A.1 cells. The settings on record: J774.A1, 1 μM compound, graded compared to taurodeoxycholic acid (positive control), read-out: TNF-α production inhibition grade. Summed up: (§1)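 Mouse J774A.1 macrophages treated with 1 μM compound; TNF-α secretion measured after LPS stimulation and IL-1β secretion after LPS+ATP stimulation. Suppression graded against taurodeoxycholic acid: A over 100%, B 50–100%, C 20–50%, D under 20%.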

Test [2] shares this test system. The test can be described thus: LPS+ATP-induced IL-1β secretion inhibition in J774A.1 cells. To be noted: J774.A1, 1 μM compound, graded compared to taurodeoxycholic acid (positive control), read-out: IL-1β production inhibition grade. Summed up:
as §1

For test [3], the system named is U937 cells (human monocytic cell line). The experiment in a line: Pam2CSK4-induced TNF-α secretion inhibition in PMA-differentiated U937 cells. To be noted: U-937, U937 cells differentiated with PMA, read-out: TNF-α production inhibition grade (IC50). Summed up:
(§2)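 U937 cells were PMA-differentiated into macrophages and treated with compound before inflammatory stimulus. TNF-α secretion was induced with Pam2CSK4 and IL-1β secretion with BzATP. IC50 (μM) values are graded A-D, with separate cut-offs per cytokine.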

Test [4] shares this test system. The test can be described thus: BzATP-induced IL-1β secretion inhibition in PMA-differentiated U937 cells. To be noted: U-937, U937 cells differentiated with PMA, read-out: IL-1β production inhibition grade (IC50). The method in brief:
as §2

As usually defined, the inhibition is the change of the read-out against control, counted positive when it falls. By IC50 is commonly meant the concentration needed to halve the response being measured. Turning to `CC(C)C[C@H](CS(=O)(=O)O)NC(=O)CC[C@@H](C)[C@H]1CC[C@H]2[C@@H]3[C@H](O)C[C@@H]4C[C@H](O)CC[C@]4(C)[C@H]3C[C@H](O)[C@]12C` [NC20031], the inhibition at 1 µM is less than 20% in test [1] and 50 to 100% in test [2]. For the same molecule, the IC50 in test [3] was less than 500 nM; in test [4], 50 to 100 nM.
On the same counts, the results for `C[C@H](CCC(=O)NC1(CS(=O)(=O)O)CC1)[C@H]1CC[C@H]2[C@@H]3[C@H](O)C[C@@H]4C[C@H](O)CC[C@]4(C)[C@H]3C[C@H](O)[C@]12C` [NC20032] are less than 20%, 50 to 100%, no less than 2000 nM and less than 50 nM.
On the same counts, the results for `C[C@H](CCC(=O)N1CC[C@H](S(=O)(=O)O)C1)[C@H]1CC[C@H]2[C@@H]3[C@H](O)C[C@@H]4C[C@H](O)CC[C@]4(C)[C@H]3C[C@H](O)[C@]12C` [NC20033] are less than 20%, 20 to 50%, 1000 to 2000 nM and 50 to 100 nM.
On the same counts, the results for `C[C@H](CCC(=O)N1CC[C@@H](S(=O)(=O)O)C1)[C@H]1CC[C@H]2[C@@H]3[C@H](O)C[C@@H]4C[C@H](O)CC[C@]4(C)[C@H]3C[C@H](O)[C@]12C` [NC20034] are less than 20%, less than 20%, 1000 to 2000 nM and 50 to 100 nM.
On to `C[C@H](CCC(=O)N(CCN(C)C)CCS(=O)(=O)O)[C@H]1CC[C@H]2[C@@H]3[C@H](O)C[C@@H]4C[C@H](O)CC[C@]4(C)[C@H]3C[C@H](O)[C@]12C` [NC20035], for which the inhibition at 1 µM in test [1] and in test [2] was less than 20% each time. Further, the half-inhibitory concentration (IC50) lay within 1000 to 2000 nM in test [3] and 50 to 100 nM in test [4].
Consider `C[C@H](CCC(=O)N(CCS(=O)(=O)O)Cc1cccnc1)[C@H]1CC[C@H]2[C@@H]3[C@H](O)C[C@@H]4C[C@H](O)CC[C@]4(C)[C@H]3C[C@H](O)[C@]12C` [NC20036], for which the inhibition at 1 µM in test [1] and in test [2] was less than 20% each time. Further, the IC50 is 500 to 1000 nM in test [3] and 50 to 100 nM in test [4].
Turning to `C[C@H](CCC(=O)N(CCS(=O)(=O)O)c1ccccc1)[C@H]1CC[C@H]2[C@@H]3[C@H](O)C[C@@H]4C[C@H](O)CC[C@]4(C)[C@H]3C[C@H](O)[C@]12C` [NC20037], the inhibition at 1 µM is less than 20% in test [1] and 50 to 100% in test [2]. In addition, the results for the IC50 in test [3] and in test [4] were less than 500 nM and less than 50 nM, respectively.
Regarding `C[C@H](CCC(=O)NCCC(=O)O)[C@H]1CC[C@H]2[C@@H]3CC[C@@H]4CC(=O)CC[C@]4(C)[C@H]3CC[C@]12C` [NC30002], the inhibition at 1 µM is less than 20% in test [1] and 50 to 100% in test [2]. Moreover, the IC50 in test [3] was in the range of 1000 to 2000 nM; in test [4] it was 100 to 200 nM.
On the same counts, the results for `C[C@H](CCC(=O)N(C)CCS(=O)(=O)O)[C@H]1CC[C@H]2[C@@H]3CC[C@@H]4CC(=O)CC[C@]4(C)[C@H]3CC[C@]12C` [NC30004] are 20 to 50%, 20 to 50%, 1000 to 2000 nM and no less than 200 nM.
As to `C[C@H](CCC(=O)N(CCO)CCS(=O)(=O)O)[C@H]1CC[C@H]2[C@@H]3CC[C@@H]4CC(=O)CC[C@]4(C)[C@H]3CC[C@]12C` [NC30006], the inhibition at 1 µM in test [1] and in test [2] was less than 20% throughout. In addition, the IC50 in test [3] is 500 to 1000 nM; in test [4], no less than 200 nM.
Take `C[C@H](CCC(=O)N(CCS(=O)(=O)O)C1CCOCC1)[C@H]1CC[C@H]2[C@@H]3CC[C@@H]4CC(=O)CC[C@]4(C)[C@H]3CC[C@]12C` [NC30008]: the inhibition at 1 µM in test [1] is less than 20%; in test [2] it was 50 to 100%. Besides, the IC50 in test [3] is 500 to 1000 nM; in test [4], no less than 200 nM.
